Where two headings read alike, the source gives them in different places.
Key:
[1] = system: IRF3 activation in PD-L1 high HEK293T STING reporter cell line; experiment: IRF3 activation in HEK293T STING reporter cells, high PD-L1; format: cell-based, human; settings: for EC50: 20 hours; for Potency shift: with compound P27 (1 μM) versus no competition
Description: (§1) HEK293T STING reporter cell line was purchased from Invivogen and expressed low level of PD-L1. This cell line was then engineered at Incyte Research Institute to overexpress human PD-L1. Both PD-L1 high and PD-L1 low HEK293T cell lines were plated at 100,000 cells/100 μL/well in 10% fetal calf serum-containing DMEM culture medium in a 96-well flat bottom plate. Serial dilutions of PD-L1 small molecule-conjugated STING agonists were then added to the corresponding wells, and incubated for 20 hours at 37° C. In a competition study setting, 1 μM of a PD-L1 small molecule was added in the corresponding wells to compete with the binding of PD-L1 small molecule-conjugated STING agonists. At the end of the incubation, the culture supernatants were carefully removed from each well, and the amount of IRF3 activation was determined by adding Quanti-Blue substrate in accordance with the manufacturer's protocol.
(§2) 293T-Dual hSTING-R232 (ISG/KI-IFNb) cells that were generated from 293T-Dual Null (ISG/KI-IFNb) cells by stable transfection of the R232 isoform of human STING were purchased from Invivogen (Invivogen #293d-r232).
(§3) This cell line expresses an ISRE-inducible SEAP (secreted embryonic alkaline phosphatase) reporter construct, which monitors the activation of interferon regulatory factor (IRF) and its binding to ISRE (IFN-stimulated response elements). These reporter cells express low level of PD-L1. Human PD-L1 was then overexpressed in these cells through stable transfection.
(§4) These 293T-Dual hSTING-R232 reporter cells as well as293T-Dual hSTING-R232 reporter cells overexpressing huPD-L1 were treated with various concentrations of STING compounds for 20 hours. After 20 hours, interferon regulatory factor (IRF) activity was assessed by measuring SEAP levels in the supernatant using QUNTI-Blue. EC50 values were generated by curve fit in Prism software.

[2] = system: IFNβ production in CD11b+ monocytes; experiment: IFN-beta induction in CD11b+ monocytes from lung cancer pleural effusions; format: cell-based, human; settings: CD11b+ monocyte cultures, lung cancer pleural effusion, 20 hours, read-out: EC50 for IFNβ induction, Cancer patient
Description: (§5) CD11b^+ cells were isolated from healthy PBMCs as well as Pleural effusion samples using Miltenyi isolation kit according to manufacturer's protocol. Cells were seeded in 96 well plates at the density of 300,000 cells/wells, and then treated with various concentrations of compounds for 20 hours. After 20 hours, IFN-beta secretion levels were evaluated in the culture supernatants by MSD singleplex assay. EC50 values were calculated using Prism software.
(§6) Different naked STING agonisst and PD-L1-targeted small molecule-STING agonist conjugates were added to CD11b^+ monocytes cultures isolated from healthy donor blood or lung cancer patients' pleural effusions. Culture supernatants were collected 20 hours later and IFNβ production were determined using MSD singleplex assay.

PD-L1 [3] = target: T1, PD-L1 (Homo sapiens (Human), UniProt Q9NZQ7); experiment: PD-L1 surface levels on HEK293T STING reporter cells, low PD-L1; format: cell-based
Description: (§7) To determine PD-L1 expression on HEK cells after treatment of PD-L1-small molecule conjugated STING agonists, cells were harvested at 20 hours post-treatment. Single cell suspensions were then stained with phycoerythrin-conjugated anti-PD-L1 antibody (BD Bioscience), and the PD-L1 expression were then analyzed by flow cytometry. Mean fluorescence intensity was used as the relative level of surface PD-L1 expression on cells (FIG. 1 and Table 6).
(§8) Also, cells were stained with PE-conjugated anti-human PD-L1 antibody to determine surface PD-L1 expression. Cell acquisition was performed on BD LSRFortessa X-20 (BD Biosciences). Data was analyzed using FlowJo software. IC50 values were calculated using Prism Software.

[4] = system: IRF3 activation in PD-L1 low HEK293T STING reporter cell line; experiment: IRF3 activation in HEK293T STING reporter cells, low PD-L1; format: cell-based, human; settings: 20 hours, read-out: IRF Activation EC50 (nM), Low PD-L1
Description: as §1, §2, §3, §4

[5] = system: IFNβ production in CD11b+ monocytes; experiment: IFN-beta induction in CD11b+ monocytes from healthy donor PBMC; format: cell-based, human; settings: CD11b+ monocyte cultures, 20 hours, mean ± SEM
Description: as §5, §6

PD-L1 [6] = target: T1, PD-L1; experiment: PD-L1 surface levels on HEK293T STING reporter cells, high PD-L1; format: cell-based
Description: as §7, §8

IRF3 = IRF3 activation assay in THP-1 Dual cells; format: cell-based; settings: Homo sapiens, THP-1, Table 4C; read-out: THP1 IRF3 EC50
Outline: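 THP-1 Dual cells (100,000/well) were treated with serially diluted compound for 24 h at 37° C, 5% CO2. IRF3 reporter activity in supernatant was read with QUANTI-Blue as absorbance at 620-655 nm after 2 h, with untreated cells as negative control. EC50 came from fitting percent control activity against log concentration.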

PD-L1 [7] = target: T1, PD-L1; experiment: Direct method for PD-L1 internalization in CHO-PD-L1 cells; format: cell-based; settings: 40 nM pHrodo-labelled antibody, 5 to 16 hours, versus IgG control
Description: Endocytosis or internalization of PD-L1 was measured by two different methods, one direct and the other indirect. In the direct method, an anti PD-L1 antibody labeled with a pH sensitive fluorophore is incubated with PD-L1 expressing cells. Upon internalization and trafficking of the antibody-PD-L1 complex to low pH endosomes, fluorescence is emitted. In the indirect method, cell surface PD-L1 is measured using an anti PD-L1 antibody after incubation with a compound to determine remaining, non-internalized receptor.
For the direct measurement, biotinylated anti-PD-L1 antibody (BPS Biosciences) or Atezolizumab, biotinylated with a 20-fold excess of biotin using the EZ-Link™ Sulfo-NHS-LC-Biotin reagents (ThermoFisher), were labeled with pHrodo™ Red Avidin (Life Technologies) conjugate. Equimolar solutions of the antibody and pHrodo™ Red avidin (4.2 uM each) were incubated on ice for 2 hours in the dark in a buffer composed of 40 mM Tris-HCl, pH 8.0, 110 mM NaCl, 2.2 mM KCl, 20% glycerol, and 1% bovine serum albumin The mixture was centrifuged for 1 minute at 1000 rpm, and the clarified supernatant was used in subsequent assays. […] The cells were analyzed by flow cytometry, and internalized antibody-receptor complex was detected using a C6 Accuri Flow Cytometer (excitation with […] and emission collected with a 585/40 bandpass filter).

[8] = high PD-L1 cells, read-out: IRF Activation EC50 (nM), High PD-L1
[9] = no competition, read-out: IRF Activation EC50 (nM), No competition
[10] = read-out: IRF Activation EC50 (nM), With compound P27 (1 μM), competition with compound P27 1 μM

T1 sequence (Q9NZQ7 19-290): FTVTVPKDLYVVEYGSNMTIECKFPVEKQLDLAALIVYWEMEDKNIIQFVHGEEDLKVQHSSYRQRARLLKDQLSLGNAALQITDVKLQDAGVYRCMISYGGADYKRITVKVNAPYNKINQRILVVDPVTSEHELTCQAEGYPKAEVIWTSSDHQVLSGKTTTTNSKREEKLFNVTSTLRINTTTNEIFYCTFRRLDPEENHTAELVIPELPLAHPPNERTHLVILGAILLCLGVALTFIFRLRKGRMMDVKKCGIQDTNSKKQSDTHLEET

Compound	EC50 [1, 8] [nM]	EC50 [1, 9] [nM]	EC50 [1, 10] [nM]	Potency shift [1]	EC50 [2] [nM]	IC50 (PD-L1 [3]) [nM]	EC50 [4] [nM]	EC50 [5] [nM]	IC50 (PD-L1 [6]) [nM]	EC50 ([2]; Homo sapiens) [nM]	EC50 (IRF3) [nM]	EC50 ([5]; Homo sapiens) [nM]	PD-L1 internalization (direct method) (PD-L1 [7])
CCn1nc(C)cc1C(=O)Nc1nc2cc(C(N)=O)cc(OC)c2n1C/C=C/Cn1c(NC(=O)c2cc(C)nn2CC)nc2cc(C(N)=O)cc(OCCCNC(=O)[C@H](CC(=O)O)NC(=O)[C@H](CC(=O)O)NC(=O)[C@H](CCCNC(=N)N)NC(=O)[C@H](CC(=O)O)NC(=O)CCCN3CCc4c(nc(C(=O)Nc5cccc(-c6cccc(NC(=O)c7nc8c(n7C)CCN(CCCC(=O)O)C8)c6Cl)c5Cl)n4C)C3)c21 [Example 1]	< 50	< 50	200 to 1000	>100	406	> 1000	200 to 1000	5030 ± 1260	< 50				
CCn1nc(C)cc1C(=O)Nc1nc2cc(C(N)=O)cc(OC)c2n1C/C=C/Cn1c(NC(=O)c2cc(C)nn2CC)nc2cc(C(N)=O)cc(OCCCNC(=O)CCNC(=O)OCc3ccc(NC(=O)[C@H](CCCNC(N)=O)NC(=O)[C@@H](NC(=O)CCCN4CCc5c(nc(C(=O)Nc6cccc(-c7cccc(NC(=O)c8nc9c(n8C)CCN(CCCC(=O)O)C9)c7Cl)c6Cl)n5C)C4)C(C)C)cc3)c21 [Example 2]	< 50	< 50	50 to 200	>20		> 1000	50 to 200		< 50				
CCn1nc(C)cc1C(=O)Nc1nc2cc(C(N)=O)cc(OC)c2n1C/C=C/Cn1c(NC(=O)c2cc(C)nn2CC)nc2cc(C(N)=O)cc(OCCCNC(=O)CCNC(=O)OCCSSC[C@H](NC(=O)[C@H](CC(=O)O)NC(=O)[C@H](CC(=O)O)NC(=O)[C@H](CCCNC(=N)N)NC(=O)[C@H](CC(=O)O)NC(=O)CCCN3CCc4c(nc(C(=O)Nc5cccc(-c6cccc(NC(=O)c7nc8c(n7C)CCN(CCCC(=O)O)C8)c6Cl)c5Cl)n4C)C3)C(=O)O)c21 [Example 5]	< 50	< 50	200 to 1000	>20		> 1000	200 to 1000		< 50				
CCn1nc(C)cc1C(=O)Nc1nc2cc(C(N)=O)cc(OCCCNC(=O)[C@H](CC(=O)O)NC(=O)[C@H](CC(=O)O)NC(=O)[C@H](CCCNC(=N)N)NC(=O)[C@H](CC(=O)O)NC(=O)CCCN3CCc4c(nc(C(=O)Nc5cccc(-c6cccc(NC(=O)c7nc8c(n7C)CCN(CCCC(=O)O)C8)c6Cl)c5Cl)n4C)C3)c2n1C/C=C/Cn1c2nc(-c3cc(C)nn3CC)ncc2c2cc(C(N)=O)cc(OC)c21 [Example 7]	< 50				643		50 to 200	2010 ± 308	< 50				
CCn1nc(C)cc1C(=O)Nc1nc2cc(C(N)=O)cc(OCCCNC(=O)OCC(=O)O)c2n1C/C=C/Cn1c2nc(-c3cc(C)nn3CC)ncc2c2cc(C(N)=O)cc(OCCCOC)c21 [Example S45, (E)-2-(((3-((5-carbamoyl-1-(4-(6-carbamoyl-2-(1-ethyl-3-methyl-1H-pyrazol-5-yl)-8-(3-methoxypropoxy)-9H-pyrimido[4,5-b]indol-9-yl)but-2-en-1-yl)-2-(1-ethyl-3-methyl-1H-pyrazole-5-carboxamido)-1H-benzo[d]imidazol-7-yl)oxy)propyl)carbamoyl)oxy)acetic acid]										56	≤ 50	119 ± 22	
CCn1nc(C)cc1C(=O)Nc1nc2cc(C(N)=O)cc(OCCCOC(=O)NCCC(=O)O)c2n1C/C=C/Cn1c2nc(-c3cc(C)nn3CC)ncc2c2cc(C(N)=O)cc(OCCCOC)c21 [Example S48, (E)-3-(((3-((5-carbamoyl-1-(4-(6-carbamoyl-2-(1-ethyl-3-methyl-1H-pyrazol-5-yl)-8-(3-methoxypropoxy)-9H-pyrimido[4,5-b]indol-9-yl)but-2-en-1-yl)-2-(1-ethyl-3-methyl-1H-pyrazole-5-carboxamido)-1H-benzo[d]imidazol-7-yl)oxy)propoxy)carbonyl)amino)propanoic acid]										38	≤ 50	64 ± 12	
Atezolizumab													dos not cause PD-L1 internalization

— US11596692B1 (Incyte Corporation, priority 2018, dated 2023)
